Earlier results on one compound are cited in patent publication US20060139426A1, “Ink, ink set, processing solution, recording method, recording medium, ink tank, and recording device” (Fuji Xerox Co., Ltd., priority 2004, published 2006).

Regarding `O=C(O)c1ccco1` [2-Furancarboxylic acid], the pKa is recorded as 2.4.

The term pKa denotes the negative logarithm of the acid dissociation constant.
